Toxic doses and inconclusive results are not listed.
Tested on: L1210 leukemia ip in BDF1 mice, survival T/C
Test: NCI In Vivo Anticancer Drug Screen. Data for tumor model L1210 Leukemia (intraperitoneal) in B6D2F1 (BDF1) mice
Details: endpoint: mean survival time, higher = longer survival
How it was run: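 Ratio derived from survival: compound-dosed mice over vehicle-dosed mice, all bearing a transplantable tumor.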

[1] = dose: 75.0 mg/kg/injection, schedule: Q01DX001 (ip), vehicle: saline
[2] = dose: 150.0 mg/kg/injection, schedule: Q01DX001 (ip), vehicle: saline
[3] = dose: 100.0 mg/kg/injection, schedule: Q04DX003 (ip), vehicle: Klucel (hydroxypropylcellulose) (HPC)
[4] = dose: 200.0 mg/kg/injection, schedule: Q04DX003 (ip), vehicle: Klucel (hydroxypropylcellulose) (HPC)
[5] = dose: 100.0 mg/kg/injection, schedule: Q04DX002 (ip), vehicle: saline with Tween-80
[6] = dose: 200.0 mg/kg/injection, schedule: Q04DX002 (ip), vehicle: saline with Tween-80
[7] = dose: 100.0 mg/kg/injection, schedule: Q01DX009 (ip), vehicle: Klucel (hydroxypropylcellulose) (HPC)
[8] = dose: 200.0 mg/kg/injection, schedule: Q01DX009 (ip), vehicle: Klucel (hydroxypropylcellulose) (HPC)
[9] = dose: 400.0 mg/kg/injection, schedule: Q01DX009 (ip), vehicle: Klucel (hydroxypropylcellulose) (HPC)
[10] = dose: 100.0 mg/kg/injection, schedule: Q01DX009 (ip), vehicle: saline with Tween-80

What does the source list for N#Cc1ccccc1NC(=O)N(CCCl)N=O?
T/C (dose: 2.0 mg/kg/injection, schedule: Q01DX001 (ip), vehicle: carboxymethylcellulose (CMC)): 119 % of control; T/C (dose: 13.0 mg/kg/injection, schedule: Q01DX009 (ip), vehicle: carboxymethylcellulose (CMC)): 124 % of control; T/C (dose: 13.3 mg/kg/injection, schedule: Q01DX001 (ip), vehicle: carboxymethylcellulose (CMC)): 120 % of control; T/C (dose: 20.0 mg/kg/injection, schedule: Q01DX009 (ip), vehicle: carboxymethylcellulose (CMC)): 105 % of control; T/C (dose: 30.0 mg/kg/injection, schedule: Q01DX009 (ip), vehicle: carboxymethylcellulose (CMC)): 108 % of control

Which T/C (dose: 100.0 mg/kg/injection, schedule: Q04DX002 (ip), vehicle: other) does the source give for O=C1CC(C(F)(F)F)(C(F)(F)F)O1 here?
Its T/C is 120 % of control.

What about the T/C (dose: 200.0 mg/kg/injection, schedule: Q04DX002 (ip), vehicle: other) of the same compound?
Its T/C is 102 % of control.

And the T/C (dose: 400.0 mg/kg/injection, schedule: Q04DX002 (ip), vehicle: other)?
The T/C was 102 % of control.

For CCOP(=O)(OCC)Oc1cc(C)c(SC)c(C)c1, which T/C [1] is on record?
Its T/C is 89 % of control.

And the T/C [2]?
The T/C was 101 % of control.

With CC(C)(C#N)C(C)(C)c1cnc2ccccc2c1 as the compound, how does the T/C [3] read?
The T/C was 96 % of control.

What about the T/C [4] of the same compound?
The T/C was 101 % of control.

Which T/C [5] does the source give for [O-][n+]1onc(-c2ccccn2)c1-c1ccccn1 here?
Its T/C is 95 % of control.

And the T/C [6]?
The T/C was 100 % of control.

And the T/C (dose: 400.0 mg/kg/injection, schedule: Q04DX002 (ip), vehicle: saline with Tween-80)?
The T/C was 103 % of control.

For CCCP(=S)(CCC)Oc1ccc([N+](=O)[O-])cc1, which T/C [1] is on record?
Its T/C is 95 % of control.

And the T/C [2]?
The T/C was 98 % of control.

With C=CCn1c2ccccc2c2cc3cnccc3c(C)c21 as the compound, how does the T/C (dose: 6.25 mg/kg/injection, schedule: Q04DX003 (ip), vehicle: Klucel (hydroxypropylcellulose) (HPC)) read?
Its T/C is 100 % of control.

And the T/C (dose: 12.5 mg/kg/injection, schedule: Q04DX003 (ip), vehicle: Klucel (hydroxypropylcellulose) (HPC))?
The T/C was 97 % of control.

What about the T/C (dose: 25.0 mg/kg/injection, schedule: Q04DX003 (ip), vehicle: Klucel (hydroxypropylcellulose) (HPC)) of the same compound?
Its T/C is 100 % of control.

What about the T/C [3] of the same compound?
Its T/C is 102 % of control.

And the T/C [4]?
Its T/C is 97 % of control.

What about the T/C (dose: 400.0 mg/kg/injection, schedule: Q04DX003 (ip), vehicle: Klucel (hydroxypropylcellulose) (HPC)) of the same compound?
The T/C was 105 % of control.

With O=C(c1ccc(C(=O)Nc2cccc3ccccc23)c(C(=O)O)c1)c1ccc(C(=O)Nc2cccc3ccccc23)c(C(=O)O)c1 as the compound, how does the T/C (dose: 100.0 mg/kg/injection, schedule: Q04DX002 (ip), vehicle: Klucel (hydroxypropylcellulose) (HPC)) read?
The T/C was 97 % of control.

What about the T/C (dose: 200.0 mg/kg/injection, schedule: Q04DX002 (ip), vehicle: Klucel (hydroxypropylcellulose) (HPC)) of the same compound?
Its T/C is 94 % of control.

And the T/C (dose: 400.0 mg/kg/injection, schedule: Q04DX002 (ip), vehicle: Klucel (hydroxypropylcellulose) (HPC))?
Its T/C is 94 % of control.

For O=C(O)c1ccc(Br)c([N+](=O)[O-])c1, which T/C [7] is on record?
Its T/C is 95 % of control.

What about the T/C [8] of the same compound?
Its T/C is 94 % of control.

And the T/C [9]?
Its T/C is 92 % of control.

N#C/C(=C\C1CCCCC1Cl)C1CCC([N+](=O)[O-])CC1 (stereo not given) was tested. Which T/C (dose: 50.0 mg/kg/injection, schedule: Q04DX002 (ip), vehicle: saline with Tween-80) did it give?
Its T/C is 91 % of control.

And the T/C [5]?
Its T/C is 91 % of control.

And the T/C [6]?
The T/C was 97 % of control.

With O=C(Nc1ncc(S(=O)(=O)c2ccc([N+](=O)[O-])cc2)s1)C(F)(F)F as the compound, how does the T/C [10] read?
Its T/C is 94 % of control.

And the T/C (dose: 200.0 mg/kg/injection, schedule: Q01DX009 (ip), vehicle: saline with Tween-80)?
The T/C was 99 % of control.

What does the source list for c1ccc2n[se]nc2c1?
T/C (dose: 12.5 mg/kg/injection, schedule: Q04DX003 (ip), vehicle: saline): 86 % of control; T/C (dose: 25.0 mg/kg/injection, schedule: Q04DX003 (ip), vehicle: saline): 103 % of control

With OCc1cc(Cl)cc(Cl)c1O as the compound, how does the T/C [10] read?
Its T/C is 97 % of control.

And the T/C (dose: 100.0 mg/kg/injection, schedule: Q04DX003 (ip), vehicle: saline with Tween-80)?
The T/C was 97 % of control.

And the T/C (dose: 200.0 mg/kg/injection, schedule: Q04DX003 (ip), vehicle: saline with Tween-80)?
The T/C was 98 % of control.

What about the T/C (dose: 400.0 mg/kg/injection, schedule: Q04DX003 (ip), vehicle: saline with Tween-80) of the same compound?
The T/C was 101 % of control.

Which T/C (dose: 50.0 mg/kg/injection, schedule: Q04DX002 (ip), vehicle: saline) does the source give for COC1OC(COC(=S)SCc2ccccc2)C(O)C(O)C1O (stereo not given) here?
Its T/C is 113 % of control.

What about the T/C (dose: 100.0 mg/kg/injection, schedule: Q04DX002 (ip), vehicle: saline) of the same compound?
The T/C was 110 % of control.

And the T/C (dose: 200.0 mg/kg/injection, schedule: Q04DX002 (ip), vehicle: saline)?
The T/C was 92 % of control.

With Cc1ccc(NC(=O)Oc2ccccc2F)cc1NC(=O)Oc1ccccc1F as the compound, how does the T/C (dose: 100.0 mg/kg/injection, schedule: Q01DX009 (ip), vehicle: other) read?
Its T/C is 102 % of control.

What about the T/C (dose: 200.0 mg/kg/injection, schedule: Q01DX009 (ip), vehicle: other) of the same compound?
The T/C was 90 % of control.

And the T/C (dose: 400.0 mg/kg/injection, schedule: Q01DX009 (ip), vehicle: other)?
Its T/C is 94 % of control.

Which results are given for C=C(C)COc1c(C)c(C)c(OS(=O)(=O)c2ccc(Br)cc2)c(C)c1C?
T/C (dose: 100.0 mg/kg/injection, schedule: Q01DX001 (ip), vehicle: Klucel (hydroxypropylcellulose) (HPC)): 97 % of control; T/C (dose: 200.0 mg/kg/injection, schedule: Q01DX001 (ip), vehicle: Klucel (hydroxypropylcellulose) (HPC)): 89 % of control; T/C (dose: 400.0 mg/kg/injection, schedule: Q01DX001 (ip), vehicle: Klucel (hydroxypropylcellulose) (HPC)): 100 % of control

How did the T/C (dose: 50.0 mg/kg/injection, schedule: Q01DX001 (ip), vehicle: carboxymethylcellulose (CMC)) turn out when COCC(C)CNC(=S)Nc1ccccc1 (stereo not given) was run?
Its T/C is 108 % of control.

And the T/C (dose: 100.0 mg/kg/injection, schedule: Q01DX001 (ip), vehicle: carboxymethylcellulose (CMC))?
Its T/C is 103 % of control.

What about the T/C (dose: 200.0 mg/kg/injection, schedule: Q01DX001 (ip), vehicle: carboxymethylcellulose (CMC)) of the same compound?
The T/C was 103 % of control.

What about the T/C (dose: 400.0 mg/kg/injection, schedule: Q01DX001 (ip), vehicle: carboxymethylcellulose (CMC)) of the same compound?
The T/C was 105 % of control.

How did the T/C (dose: 0.25 mg/kg/injection, schedule: Q01DX009 (ip), vehicle: saline) turn out when Nc1ccc(N(CCCl)CCN(CCCl)c2ccc(N)cc2)cc1 was run?
The T/C was 102 % of control.

And the T/C (dose: 0.5 mg/kg/injection, schedule: Q01DX009 (ip), vehicle: saline)?
The T/C was 109 % of control.

And the T/C (dose: 1.0 mg/kg/injection, schedule: Q01DX009 (ip), vehicle: saline)?
Its T/C is 118 % of control.

And the T/C (dose: 1.2 mg/kg/injection, schedule: Q01DX009 (ip), vehicle: carboxymethylcellulose (CMC))?
The T/C was 109 % of control.

What about the T/C (dose: 2.5 mg/kg/injection, schedule: Q01DX001 (ip), vehicle: carboxymethylcellulose (CMC)) of the same compound?
Its T/C is 106 % of control.

And the T/C (dose: 2.5 mg/kg/injection, schedule: Q01DX009 (ip), vehicle: carboxymethylcellulose (CMC))?
The T/C was 111 % of control.

And the T/C (dose: 2.9 mg/kg/injection, schedule: Q01DX001 (ip), vehicle: carboxymethylcellulose (CMC))?
The T/C was 114 % of control.

And the T/C (dose: 2.9 mg/kg/injection, schedule: Q01DX009 (ip), vehicle: carboxymethylcellulose (CMC))?
The T/C was 119 % of control.

And the T/C (dose: 2.9 mg/kg/injection, schedule: Q01DX009 (ip), vehicle: saline)?
Its T/C is 169 % of control.

What about the T/C (dose: 4.0 mg/kg/injection, schedule: Q01DX001 (ip), vehicle: saline) of the same compound?
The T/C was 106 % of control.

What about the T/C (dose: 4.4 mg/kg/injection, schedule: Q01DX001 (ip), vehicle: carboxymethylcellulose (CMC)) of the same compound?
The T/C was 119 % of control.

What about the T/C (dose: 4.4 mg/kg/injection, schedule: Q01DX009 (ip), vehicle: saline) of the same compound?
Its T/C is 159 % of control.

And the T/C (dose: 5.0 mg/kg/injection, schedule: Q01DX001 (ip), vehicle: carboxymethylcellulose (CMC))?
Its T/C is 115 % of control.

And the T/C (dose: 6.0 mg/kg/injection, schedule: Q01DX001 (ip), vehicle: saline)?
Its T/C is 122 % of control.

And the T/C (dose: 10.0 mg/kg/injection, schedule: Q01DX001 (ip), vehicle: saline)?
Its T/C is 111 % of control.

What about the T/C (dose: 10.0 mg/kg/injection, schedule: Q01DX009 (ip), vehicle: carboxymethylcellulose (CMC)) of the same compound?
The T/C was 106 % of control.

And the T/C (dose: 10.0 mg/kg/injection, schedule: Q01DX009 (ip), vehicle: saline)?
The T/C was 105 % of control.

And the T/C (dose: 15.0 mg/kg/injection, schedule: Q01DX001 (ip), vehicle: saline)?
The T/C was 117 % of control.

Which results are given for O=C(COCC(=O)N/N=C/C=C/c1ccccc1)N/N=C/C=C/c1ccccc1?
T/C [7]: 96 % of control; T/C [8]: 104 % of control; T/C [9]: 95 % of control

What does the source list for CC(C)C[CH2][Pb]([Cl])([CH2]CC(C)C)[CH2]CC(C)C?
T/C (dose: 0.03 mg/kg/injection, schedule: Q04DX002 (ip), vehicle: saline): 96 % of control; T/C (dose: 0.05 mg/kg/injection, schedule: Q04DX002 (ip), vehicle: saline): 102 % of control; T/C (dose: 0.1 mg/kg/injection, schedule: Q04DX002 (ip), vehicle: saline): 96 % of control; T/C (dose: 0.2 mg/kg/injection, schedule: Q04DX002 (ip), vehicle: other): 111 % of control; T/C (dose: 0.2 mg/kg/injection, schedule: Q04DX003 (ip), vehicle: other): 101 % of control; T/C (dose: 0.78 mg/kg/injection, schedule: Q04DX003 (ip), vehicle: other): 95 % of control
